Test results published in PubChem BioAssay AID248 (DTP/NCI, 2004).
Values joined by “and” are separate entries in the source; they are usually repeats but may differ in a detail not shown here. Identical values can stand only once. Toxic doses and inconclusive results are not listed. No stated cut-off is given here; in the data, active means T/C of 150% or more; inactive means T/C below 125%.

System: L1210 leukemia ip in BDF1 mice, survival T/C
Test: NCI In Vivo Anticancer Drug Screen. Data for tumor model L1210 Leukemia (intraperitoneal) in B6D2F1 (BDF1) mice
Settings: endpoint: mean survival time, higher = longer survival
Method in brief: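 Transplanted-tumor mice were given test agent; controls received vehicle only. Survival readings from the two groups were divided (treated over control).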

[1] = dose: 100.0 mg/kg/injection, schedule: Q01DX009 (ip), vehicle: saline
[2] = dose: 100.0 mg/kg/injection, schedule: Q04DX002 (ip), vehicle: saline
[3] = dose: 200.0 mg/kg/injection, schedule: Q01DX009 (ip), vehicle: saline
[4] = dose: 200.0 mg/kg/injection, schedule: Q04DX002 (ip), vehicle: saline
[5] = dose: 400.0 mg/kg/injection, schedule: Q04DX002 (ip), vehicle: saline
[6] = dose: 100.0 mg/kg/injection, schedule: Q04DX002 (ip), vehicle: Klucel (hydroxypropylcellulose) (HPC)
[7] = dose: 200.0 mg/kg/injection, schedule: Q04DX002 (ip), vehicle: Klucel (hydroxypropylcellulose) (HPC)
[8] = dose: 400.0 mg/kg/injection, schedule: Q04DX002 (ip), vehicle: Klucel (hydroxypropylcellulose) (HPC)
[9] = dose: 25.0 mg/kg/injection, schedule: Q04DX003 (ip), vehicle: saline
[10] = dose: 50.0 mg/kg/injection, schedule: Q04DX003 (ip), vehicle: saline
[11] = dose: 100.0 mg/kg/injection, schedule: Q04DX003 (ip), vehicle: saline
[12] = dose: 100.0 mg/kg/injection, schedule: Q01DX001 (ip), vehicle: carboxymethylcellulose (CMC)
[13] = dose: 200.0 mg/kg/injection, schedule: Q01DX001 (ip), vehicle: carboxymethylcellulose (CMC)
[14] = dose: 100.0 mg/kg/injection, schedule: Q04DX003 (ip), vehicle: Klucel (hydroxypropylcellulose) (HPC)
[15] = dose: 200.0 mg/kg/injection, schedule: Q04DX003 (ip), vehicle: Klucel (hydroxypropylcellulose) (HPC)
[16] = dose: 400.0 mg/kg/injection, schedule: Q04DX003 (ip), vehicle: Klucel (hydroxypropylcellulose) (HPC)
[17] = dose: 100.0 mg/kg/injection, schedule: Q01DX001 (ip), vehicle: saline
[18] = dose: 200.0 mg/kg/injection, schedule: Q01DX001 (ip), vehicle: saline
[19] = dose: 400.0 mg/kg/injection, schedule: Q01DX001 (ip), vehicle: saline

Measured: T/C

COc1ccc2c(c1)CC/C(=C\c1cccnc1)C2=O
inactive: dose: 100.0 mg/kg/injection, schedule: Q04DX003 (ip), vehicle: carboxymethylcellulose (CMC) 110 % of control | dose: 200.0 mg/kg/injection, schedule: Q04DX003 (ip), vehicle: carboxymethylcellulose (CMC) 96 % of control | dose: 400.0 mg/kg/injection, schedule: Q04DX003 (ip), vehicle: carboxymethylcellulose (CMC) 94 % of control

CCN(CC)C(=O)N1CCCCC1
inactive: [1] 101 % of control | [2] 97 % of control | [3] 92 % of control | [4] 100 % of control | [5] 95 % of control

CCCCCCCCCCCCCCCC(=O)Nc1ccc(C)cc1C
inactive: [6] 96 % of control | [7] 93 % of control | [8] 90 % of control

Cc1cc(C)c(C(=O)CCN(C)C)c(C)c1
inactive: dose: 25.0 mg/kg/injection, schedule: Q01DX009 (ip), vehicle: saline 103 % of control | [9] 93 % of control | dose: 50.0 mg/kg/injection, schedule: Q01DX009 (ip), vehicle: saline 96 % of control | [10] 96 % of control | [11] 93 % of control and 104 % of control

COC(=O)[CH]([Hg][O]C(C)=O)C(OC)c1ccccc1 (stereo not given)
inactive: dose: 3.0 mg/kg/injection, schedule: Q04DX002 (ip), vehicle: carboxymethylcellulose (CMC) 86 % of control | dose: 6.0 mg/kg/injection, schedule: Q04DX002 (ip), vehicle: carboxymethylcellulose (CMC) 93 % of control | dose: 12.5 mg/kg/injection, schedule: Q04DX002 (ip), vehicle: carboxymethylcellulose (CMC) 94 % of control | dose: 25.0 mg/kg/injection, schedule: Q04DX002 (ip), vehicle: carboxymethylcellulose (CMC) 98 % of control

CCOC(=O)/C=C\SCC(=O)OCC
inactive: [2] 104 % of control | [4] 104 % of control | [5] 93 % of control

O=C(O)/C=C/c1ccc(C(NC(=O)N2C(=O)C=CC2=O)NC(=O)N2C(=O)C=CC2=O)cc1
inactive: [12] 100 % of control | [13] 95 % of control | dose: 400.0 mg/kg/injection, schedule: Q01DX001 (ip), vehicle: carboxymethylcellulose (CMC) 97 % of control

CCOC(=O)c1cnccc1C#N
inactive: [6] 88 % of control | [7] 100 % of control | [8] 100 % of control

COc1cccc(CC(C)N)c1OC (stereo not given)
inactive: [9] 103 % of control | [10] 91 % of control | [11] 101 % of control

[Cl][Pd][Cl].[NH-]C1CCCCC1.[NH-]C1CCCCC1
inactive: dose: 50.0 mg/kg/injection, schedule: Q04DX002 (ip), vehicle: Klucel (hydroxypropylcellulose) (HPC) 94 % of control | [6] 102 % of control | [7] 87 % of control

Cc1ccc(S(=O)(=O)NC(=O)NC(C)C(=O)O)cc1 (stereo not given)
inactive: [11] 102 % of control | dose: 200.0 mg/kg/injection, schedule: Q04DX003 (ip), vehicle: saline 97 % of control | dose: 400.0 mg/kg/injection, schedule: Q04DX003 (ip), vehicle: saline 96 % of control

C[n+]1ccc(/C=C/Nc2cccc(N)n2)cc1
inactive: dose: 75.0 mg/kg/injection, schedule: Q01DX001 (ip), vehicle: saline 96 % of control | dose: 150.0 mg/kg/injection, schedule: Q01DX001 (ip), vehicle: saline 102 % of control

CCOC(=O)c1ccc(NC(=O)Sc2cccc(C)c2)cc1
inactive: [14] 93 % of control | [15] 97 % of control | [16] 96 % of control

CCCCn1cncc1C
inactive: dose: 1.56 mg/kg/injection, schedule: Q01DX009 (ip), vehicle: saline 88 % of control | dose: 3.13 mg/kg/injection, schedule: Q01DX009 (ip), vehicle: saline 98 % of control | dose: 6.25 mg/kg/injection, schedule: Q01DX009 (ip), vehicle: saline 98 % of control and 104 % of control

NC(CCl)=NC1CCCC1
inactive: dose: 25.0 mg/kg/injection, schedule: Q04DX002 (ip), vehicle: saline 109 % of control | dose: 50.0 mg/kg/injection, schedule: Q04DX002 (ip), vehicle: saline 102 % of control | [2] 121 % of control

CNC(C#N)c1ccco1 (stereo not given)
inactive: dose: 6.25 mg/kg/injection, schedule: Q04DX003 (ip), vehicle: saline 102 % of control | dose: 12.5 mg/kg/injection, schedule: Q04DX003 (ip), vehicle: saline 95 % of control | [10] 94 % of control

OCCC1CNCCN1.[Cl][Pd]([Cl])([Cl])[Cl] (stereo not given)
inactive: dose: 100.0 mg/kg/injection, schedule: Q01DX001 (ip), vehicle: DMSO 98 % of control | dose: 200.0 mg/kg/injection, schedule: Q01DX001 (ip), vehicle: DMSO 91 % of control

O=[N+]([O-])c1ccc(/C=N/N2CCN(/N=C/c3ccc([N+](=O)[O-])cc3)CC2)cc1
inactive: [17] 96 % of control | [18] 92 % of control | [19] 92 % of control

COc1ccc(C(O)(CNCc2ccccc2)c2ccccc2)cc1 (stereo not given)
inactive: dose: 100.0 mg/kg/injection, schedule: Q01DX001 (ip), vehicle: saline with Tween-80 97 % of control

CS(=O)(=O)OCC1OC(c2ccccc2)OC(C(CBr)OS(C)(=O)=O)C1OS(C)(=O)=O (stereo not given)
inactive: [6] 97 % of control | [7] 93 % of control | [8] 93 % of control

O=C1CCC(N2C(=O)c3ccccc3C2=O)C(=O)N1 (stereo not given)
inactive: dose: 25.0 mg/kg/injection, schedule: Q01DX009 (ip), vehicle: Klucel (hydroxypropylcellulose) (HPC) 112 % of control | dose: 25.0 mg/kg/injection, schedule: Q04DX003 (ip), vehicle: Klucel (hydroxypropylcellulose) (HPC) 109 % of control | dose: 31.3 mg/kg/injection, schedule: Q01DX Z (ip), vehicle: saline 102 % of control | dose: 50.0 mg/kg/injection, schedule: Q01DX001 (ip), vehicle: saline 105 % of control | dose: 50.0 mg/kg/injection, schedule: Q01DX009 (ip), vehicle: Klucel (hydroxypropylcellulose) (HPC) 111 % of control | dose: 50.0 mg/kg/injection, schedule: Q04DX003 (ip), vehicle: Klucel (hydroxypropylcellulose) (HPC) 95 % of control | dose: 62.5 mg/kg/injection, schedule: Q01DX Z (ip), vehicle: saline 94 % of control | [17] 105 % of control | dose: 100.0 mg/kg/injection, schedule: Q01DX009 (ip), vehicle: Klucel (hydroxypropylcellulose) (HPC) 103 % of control | [1] 96 % of control | [14] 98 % of control | dose: 125.0 mg/kg/injection, schedule: Q01DX Z (ip), vehicle: saline 104 % of control | [18] 111 % of control | dose: 200.0 mg/kg/injection, schedule: Q01DX009 (ip), vehicle: Klucel (hydroxypropylcellulose) (HPC) 100 % of control | [3] 102 % of control | [15] 98 % of control | dose: 250.0 mg/kg/injection, schedule: Q01DX Z (ip), vehicle: saline 102 % of control | [19] 109 % of control | dose: 400.0 mg/kg/injection, schedule: Q01DX009 (ip), vehicle: Klucel (hydroxypropylcellulose) (HPC) 101 % of control | dose: 400.0 mg/kg/injection, schedule: Q01DX009 (ip), vehicle: saline 98 % of control | [16] 106 % of control | dose: 800.0 mg/kg/injection, schedule: Q01DX009 (ip), vehicle: saline 95 % of control

Cn1c(=O)[nH]c(=O)c2[nH]c(CO)nc21
inactive: [12] 100 % of control | [13] 102 % of control
